Test results published in ChEMBL document CHEMBL3272190, “(2-exo-3-endo)-2-Aryltropane-3-carboxylic esters, a new class of narcotic antagonists” (J Med Chem, 1978).
Active and inactive are the calls of the source. No cut-off for these calls is given here.

Key:
Mus musculus [1] = experiment: Antiwrithing activity in sc dosed mouse assessed as prevention of acetylcholine-induced abdominal constriction response; assay type: functional; details: Abdomen
Mus musculus [2] = experiment: Antiwrithing activity in po dosed mouse assessed as prevention of acetylcholine-induced abdominal constriction response; assay type: functional; details: Abdomen
Rattus norvegicus [3] = experiment: Narcotic analgesic activity in sc dosed rat assessed as inhibition of phenazocine-induced effect by D'Amour-Smith tail flick test; assay type: functional
Rattus norvegicus [4] = experiment: Analgesic activity in rat assessed as inhibition of intraarterial bradykinin-induced effect at 10 mg/kg, sc; assay type: functional, organism-based; design: dose 10 mg/kg
Mus musculus [5] = experiment: Antiwrithing activity in sc dosed mouse assessed as prevention of phenyl-p-benzoquinone-induced abdominal constriction response; assay type: functional; details: Abdomen
Rattus norvegicus [6] = experiment: Narcotic analgesic activity in po dosed rat assessed as inhibition of phenazocine-induced effect by D'Amour-Smith tail flick test; assay type: functional
Rattus norvegicus [7] = experiment: Induction of tremors in rat at 120 mg/kg, sc; assay type: organism-based; design: dose 120 mg/kg, route subcutaneous; details: in vivo
Mus musculus [8] = experiment: Induction of hyperactiveness in mouse at 75 mg/kg, sc; assay type: organism-based; design: dose 75 mg/kg, route subcutaneous; details: in vivo
Rattus norvegicus [9] = experiment: Induction of hyperactiveness in rat at 120 mg/kg, sc; assay type: organism-based; design: dose 120 mg/kg, route subcutaneous; details: in vivo
Mus musculus [10] = experiment: Induction of hyperactiveness in mouse at 30 mg/kg, sc; assay type: organism-based; design: dose 30 mg/kg, route subcutaneous; details: in vivo
Mus musculus [11] = experiment: Antiwrithing activity in po dosed mouse assessed as prevention of phenyl-p-benzoquinone-induced abdominal constriction response; assay type: functional; details: Abdomen
Rattus norvegicus [12] = experiment: Narcotic analgesic activity in sc dosed rat assessed as inhibition of morphine-induced effect by D'Amour-Smith tail flick test; assay type: functional, organism-based
Rattus norvegicus [13] = experiment: Narcotic analgesic activity in po dosed rat assessed as inhibition of morphine-induced effect by D'Amour-Smith tail flick test; assay type: functional, organism-based
Rattus norvegicus [14] = experiment: Narcotic analgesic activity in sc dosed rat assessed as inhibition of meperidine-induced effect by D'Amour-Smith tail flick test; assay type: functional, organism-based
Rattus norvegicus [15] = experiment: Narcotic analgesic activity in po dosed rat assessed as inhibition of meperidine-induced effect by D'Amour-Smith tail flick test; assay type: functional, organism-based
Rattus norvegicus [16] = experiment: Analgesic activity in rat assessed as inhibition of intraarterial bradykinin-induced effect up to 100 mg/kg, sc; assay type: functional
Mus musculus [17] = experiment: Induction of sedation in mouse at 40 mg/kg, sc; assay type: organism-based; design: dose 40 mg/kg, route subcutaneous; details: in vivo
Mus musculus [18] = experiment: Induction of hyperexcitable in mouse at 100 mg/kg, sc; assay type: organism-based; design: dose 100 mg/kg, route subcutaneous; details: in vivo
Rattus norvegicus [19] = experiment: Induction of convulsion in rat at 120 mg/kg, sc; assay type: organism-based; design: dose 120 mg/kg, route subcutaneous; details: in vivo
Rattus norvegicus [20] = experiment: Induction of rigidity in rat at 120 mg/kg, sc; assay type: organism-based; design: dose 120 mg/kg, route subcutaneous; details: in vivo
Rattus norvegicus [21] = experiment: Induction of hyperactiveness in rat at 200 mg/kg, po; assay type: organism-based; design: dose 200 mg/kg, route oral; details: in vivo
Mus musculus [22] = experiment: Induction of tremors in mouse at 35 mg/kg, sc; assay type: organism-based; design: dose 35 mg/kg, route subcutaneous; details: in vivo
Mus musculus [23] = experiment: Induction of depression in mouse at 35 mg/kg, sc; assay type: organism-based; design: dose 35 mg/kg, route subcutaneous; details: in vivo
Rattus norvegicus [24] = experiment: Narcotic analgesic activity in rat assessed as inhibition of phenazocine-induced effect at 10 mg, ip by D'Amour-Smith tail flick test; assay type: functional, organism-based
Rattus norvegicus [25] = experiment: Toxicity in rat assessed as mortality at >10 mg, ip; assay type: organism-based; details: in vivo
Mus musculus [26] = experiment: Induction of depression in mouse at 75 mg/kg, sc; assay type: organism-based; design: dose 75 mg/kg, route subcutaneous; details: in vivo

**Q.** Which results are given for COC(=O)[C@@H]1C[C@H]2CC[C@H]([C@H]1c1ccc[nH]1)N2C (racemic)?
**A.** ED50 (Mus musculus [1]): 13 mg/kg; ED50 (Mus musculus [2]): 42 mg/kg; AD50 (Rattus norvegicus [3]): 56 mg/kg; Activity (Rattus norvegicus [4]): inactive

**Q.** Which AD50 (Rattus norvegicus [3]) does the source give for COC(=O)[C@H]1C[C@H]2CC[C@H]([C@H]1c1ccccc1)N2C here?
**A.** >80 mg/kg

**Q.** Which ED50 (Mus musculus [1]) does the source give for COC(=O)[C@H]1C[C@H]2CC[C@H]([C@H]1c1cccc(O)c1)N2C (racemic) here?
**A.** 16 mg/kg

**Q.** And the ED50 (Mus musculus [5])?
**A.** 75 mg/kg

**Q.** And the AD50 (Rattus norvegicus [3])?
**A.** 0.37 mg/kg

**Q.** What about the AD50 (Rattus norvegicus [6]) of the same molecule?
**A.** 1.8 mg/kg

**Q.** And the Activity (Rattus norvegicus [7])?
**A.** Toxic

**Q.** What about the Activity (Mus musculus [8]) of the same molecule?
**A.** Toxic

**Q.** What about the Activity (Rattus norvegicus [9]) of the same molecule?
**A.** Toxic

**Q.** COC(=O)[C@H]1C[C@H]2CC[C@H]([C@H]1c1ccc(O)cc1)N2C (racemic) was tested. Which ED50 (Mus musculus [1]) did it give?
**A.** 7.1 mg/kg

**Q.** And the AD50 (Rattus norvegicus [3])?
**A.** >80 mg/kg

**Q.** And the Activity (Mus musculus [10])?
**A.** Toxic

**Q.** For COC(=O)[C@H]1C[C@H]2CCC([C@H]1c1ccccc1)N2C (mixture of isomers), which ED50 (Mus musculus [1]) is on record?
**A.** 12 mg/kg

**Q.** And the ED50 (Mus musculus [2])?
**A.** 16 mg/kg

**Q.** What about the ED50 (Mus musculus [5]) of the same molecule?
**A.** 43 mg/kg

**Q.** And the ED50 (Mus musculus [11])?
**A.** > 200 mg/kg

**Q.** And the AD50 (Rattus norvegicus [3])?
**A.** 5.5 mg/kg

**Q.** And the AD50 (Rattus norvegicus [6])?
**A.** 1.1 mg/kg

**Q.** What about the Activity (Rattus norvegicus [12]) of the same molecule?
**A.** inactive

**Q.** And the Activity (Rattus norvegicus [13])?
**A.** inactive

**Q.** What about the Activity (Rattus norvegicus [14]) of the same molecule?
**A.** inactive

**Q.** And the Activity (Rattus norvegicus [15])?
**A.** inactive

**Q.** What about the Activity (Rattus norvegicus [16]) of the same molecule?
**A.** inactive

**Q.** What about the Activity (Mus musculus [17]) of the same molecule?
**A.** Toxic

**Q.** And the Activity (Mus musculus [18])?
**A.** Toxic

**Q.** What about the Activity (Rattus norvegicus [19]) of the same molecule?
**A.** Toxic

**Q.** COC(=O)[C@@H]1C[C@H]2CC[C@H]([C@H]1c1cccs1)N2C (racemic) was tested. Which ED50 (Mus musculus [1]) did it give?
**A.** 12 mg/kg

**Q.** What about the ED50 (Mus musculus [2]) of the same molecule?
**A.** 35 mg/kg

**Q.** And the AD50 (Rattus norvegicus [3])?
**A.** >80 mg/kg

**Q.** And the Activity (Rattus norvegicus [16])?
**A.** Active

**Q.** And the Activity (Rattus norvegicus [7])?
**A.** Toxic

**Q.** And the Activity (Rattus norvegicus [19])?
**A.** Toxic

**Q.** What about the Activity (Rattus norvegicus [20]) of the same molecule?
**A.** Toxic

**Q.** With COC(=O)[C@H]1C[C@H]2CC[C@@H]3[C@H]1c1cccc(O)c1CN23 as the molecule, how does the AD50 (Rattus norvegicus [3]) read?
**A.** 2 mg/kg

**Q.** Which ED50 (Mus musculus [1]) does the source give for COC(=O)[C@H]1C[C@H]2CC[C@H](N2)[C@H]1c1cccc(O)c1 here?
**A.** 60 mg/kg

**Q.** What about the AD50 (Rattus norvegicus [3]) of the same molecule?
**A.** 0.3 mg/kg

**Q.** What about the AD50 (Rattus norvegicus [6]) of the same molecule?
**A.** 14 mg/kg

**Q.** For C=CCN1CC[C@]23c4c5ccc(O)c4O[C@H]2C(=O)CC[C@@]3(O)[C@H]1C5 [NALOXONE], which ED50 (Mus musculus [1]) is on record?
**A.** 60 mg/kg

**Q.** And the ED50 (Mus musculus [5])?
**A.** 103 mg/kg

**Q.** And the AD50 (Rattus norvegicus [3])?
**A.** 0.008 mg/kg

**Q.** COC(=O)[C@@H]1C[C@H]2CCC([C@H]1c1ccccc1)N2C (mixture of isomers) was tested. Which ED50 (Mus musculus [1]) did it give?
**A.** 12 mg/kg

**Q.** And the ED50 (Mus musculus [5])?
**A.** 17 mg/kg

**Q.** And the AD50 (Rattus norvegicus [3])?
**A.** >80 mg/kg

**Q.** What about the Activity (Rattus norvegicus [7]) of the same molecule?
**A.** Toxic

**Q.** What about the Activity (Mus musculus [17]) of the same molecule?
**A.** Toxic

**Q.** CCOC(=O)C1(c2ccccc2)CCN(C)CC1 [MEPERIDINE] was tested. Which AD50 (Rattus norvegicus [3]) did it give?
**A.** 19 mg/kg

**Q.** And the AD50 (Rattus norvegicus [6])?
**A.** 25 mg/kg

**Q.** Which ED50 (Mus musculus [2]) does the source give for COC(=O)[C@H]1C[C@H]2CC[C@H]([C@H]1c1ccc[nH]1)N2C (racemic) here?
**A.** 34 mg/kg

**Q.** What about the AD50 (Rattus norvegicus [3]) of the same molecule?
**A.** >80 mg/kg

**Q.** And the Activity (Rattus norvegicus [21])?
**A.** Toxic

**Q.** For COC(=O)[C@H]1C[C@H]2CC[C@H]([C@H]1c1cccc(OC)c1)N2C (racemic), which ED50 (Mus musculus [1]) is on record?
**A.** 19 mg/kg

**Q.** What about the AD50 (Rattus norvegicus [3]) of the same molecule?
**A.** >80 mg/kg

**Q.** And the Activity (Mus musculus [22])?
**A.** Toxic

**Q.** And the Activity (Mus musculus [23])?
**A.** Toxic

**Q.** Which results are given for COC(=O)[C@H]1CCN(C)C[C@@H]1c1ccccc1 (relative stereo)?
**A.** ED50 (Mus musculus [1]): 16 mg/kg; Activity (Rattus norvegicus [24]): inactive; Activity (Rattus norvegicus [25]): Toxic; Activity (Mus musculus [26]): Toxic

**Q.** How did the AD50 (Rattus norvegicus [3]) turn out when COC(=O)[C@H]1C[C@H]2CCC(N2)[C@H]1c1cccc(O)c1 (mixture of isomers) was run?
**A.** 2 mg/kg

**Q.** COC(=O)[C@@H]1CCN(C)C[C@@H]1c1cccs1 (relative stereo) was tested. Which AD50 (Rattus norvegicus [3]) did it give?
**A.** 49 mg/kg
